Reference: US20160151377A1, “USE OF SIGMA RECEPTOR LIGANDS FOR THE PREVENTION AND TREATMENT OF PAIN ASSOCIATED TO INTERSTITIAL CYSTITIS/BLADDER PAIN SYNDROME (IC/BPS)” (LABORATORIOS DEL DR. ESTEVE S.A., priority 2013, published 2016)

What was measured:
[1] = tested on: cyclophosphamide-induced cystitis; format: in vivo, mice
Description: (§1) Testing took place during the light phase (from 9.00 h to 15.00 h).

[2] = tested on: cyclophosphamide-induced cystitis; details: cyclophosphamide 300 mg/kg i.p., WT mice
Description: as §1

σ1 receptors = details: cited from earlier work; for affinity for σ1 receptors relative to haloperidol: rodent brain membranes and human neuroblastoma cells
D2 receptors = details: compared with haloperidol; cited from earlier work
sigma-1 receptors = details: both in experimental animals and human cells; cited from earlier work
sigma receptor = details: cited from earlier work

For `O=P1(N(CCCl)CCCl)NCCCO1` (stereo not shown) [cyclophosphamide], the “mechanical threshold for referred hyperalgesia” value ([1]; cyclophosphamide 100 mg/kg i.p., WT and σ1-KO mice) was “maximum reduction in the mechanical threshold” and the “pain score (pain-related behaviors)” value [2] was “maximum pain score”.
In the case of `OC1(c2ccc(Cl)cc2)CCNCC1` [metabolite I, 4-(4-chlorophenyl)-4-hydroxypiperidine], the “affinity for σ1 receptors relative to haloperidol” value (σ1 receptors) is listed as “less affinity than haloperidol” and the “affinity for D2 receptors” value (D2 receptors) is listed as “no affinity”.
In the case of `OC(CCCN1CCC(O)(c2ccc(Cl)cc2)CC1)c1ccc(F)cc1` (stereo not shown) [metabolite II, 4-(4-chlorophenyl)-[…]-(4-fluorophenyl)-4-hydroxy-1-piperidinebutanol], the “affinity for sigma-1 receptors” value (σ1 receptors) is listed as “high affinity (in the low nanomolar range)”, the “affinity for σ1 receptors relative to haloperidol” value (σ1 receptors) is listed as “less affinity than haloperidol” and the “affinity for D2 receptors” value (D2 receptors) is listed as “much lower”. The “blockade of sigma-1 receptors” value (sigma-1 receptors) was “irreversible blockade”.
With `CN1CC[C@]23c4c5ccc(O)c4O[C@H]2[C@@H](O)C=C[C@H]3[C@H]1C5.Cl` [morphine, Morphine hydrochloride] the “50% mechanical threshold, referred mechanical hyperalgesia” value ([1]; mouse, in vivo) was “increase the mechanical threshold to above the control value”.
In the case of `CC(C)=CCN1CCC2(C)c3cc(O)ccc3CC1C2C` (stereo not shown) [pentazocine], the “affinity of sigma receptors for analgesics” value (sigma receptor) is listed as “very high affinity”.
